Measured values published in ChEMBL document CHEMBL1201862, “PubChem BioAssay data set” (2004).
Activity calls are given as the source filed them.

How the values were obtained:
[1] = DRD fibroblast viability loss – cell-based, non-viral oncogenic, luminescence, dose response (AID 1934); assay type: functional; conditions: Homo sapiens
BJ [2] = experiment: BJ-TERT-LT-ST fibroblast viability loss – cell-based, RAS-independent, luminescence, dose response (AID 1935); assay type: functional; conditions: Homo sapiens;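 note: BJ fibroblasts immortalized with TERT plus LT and ST oncogenes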
BJ [3] = experiment: cells; assay type: functional, cell-based; conditions: Homo sapiens
BJ [4] = experiment: BJ-TERT fibroblast viability loss – cell-based, RAS-independent, luminescence, dose response (AID 1933); assay type: functional; conditions: Homo sapiens
Ephrin type-A receptor 4 = Ephrin type-A receptor 4 (Mus musculus, UniProt Q03137); experiment: EphA4 ligand-binding antagonists – biochemical, colorimetric, mouse EphA4, primary screen (AID 689); assay type: functional
Prothrombin = Prothrombin (Homo sapiens, UniProt P00734); experiment: Thrombin 1536 HTS Dose Response Confirmation. [Related pubchem assays: 1046 (Thrombin 1536 HTS; hits were confirmed in this assay)]; assay type: functional
[5] = A cytotoxicity screen of small molecule inhibitors of the PhoP region in Salmonella typhi identified in the primary screen. [Related pubchem assays: 1850, 1864, 1985 ]; assay type: functional
[6] = target: Peroxisome proliferator-activated receptor gamma/Nuclear receptor coactivator 2 (Homo sapiens, UniProt P37231); assay type: functional;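 note: agonist potency for raising coactivator recruitment to the receptor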
[7] = target: Peroxisome proliferator-activated receptor gamma/Nuclear receptor coactivator 3 (Homo sapiens, UniProt P37231); assay type: functional;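 note: agonist potency for raising coactivator recruitment to the receptor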
Chain of Peroxisome proliferator-activated receptor gamma/Nuclear receptor coactivator 3 (P37231 whole entry): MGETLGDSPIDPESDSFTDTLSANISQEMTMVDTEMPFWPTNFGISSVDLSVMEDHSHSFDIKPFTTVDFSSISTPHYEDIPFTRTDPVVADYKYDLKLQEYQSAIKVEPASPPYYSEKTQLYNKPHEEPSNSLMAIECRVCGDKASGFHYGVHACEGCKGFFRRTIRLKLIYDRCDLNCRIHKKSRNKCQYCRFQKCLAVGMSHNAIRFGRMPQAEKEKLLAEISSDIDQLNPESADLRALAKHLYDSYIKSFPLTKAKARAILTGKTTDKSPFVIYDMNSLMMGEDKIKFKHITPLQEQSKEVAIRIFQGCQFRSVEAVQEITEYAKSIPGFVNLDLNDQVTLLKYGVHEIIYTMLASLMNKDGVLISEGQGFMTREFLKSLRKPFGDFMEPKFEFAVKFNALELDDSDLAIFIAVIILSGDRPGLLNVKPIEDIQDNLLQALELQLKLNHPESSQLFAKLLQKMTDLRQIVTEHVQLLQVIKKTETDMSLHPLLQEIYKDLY
Chain of Peroxisome proliferator-activated receptor gamma/Nuclear receptor coactivator 3 (Q9Y6Q9 whole entry, further chain): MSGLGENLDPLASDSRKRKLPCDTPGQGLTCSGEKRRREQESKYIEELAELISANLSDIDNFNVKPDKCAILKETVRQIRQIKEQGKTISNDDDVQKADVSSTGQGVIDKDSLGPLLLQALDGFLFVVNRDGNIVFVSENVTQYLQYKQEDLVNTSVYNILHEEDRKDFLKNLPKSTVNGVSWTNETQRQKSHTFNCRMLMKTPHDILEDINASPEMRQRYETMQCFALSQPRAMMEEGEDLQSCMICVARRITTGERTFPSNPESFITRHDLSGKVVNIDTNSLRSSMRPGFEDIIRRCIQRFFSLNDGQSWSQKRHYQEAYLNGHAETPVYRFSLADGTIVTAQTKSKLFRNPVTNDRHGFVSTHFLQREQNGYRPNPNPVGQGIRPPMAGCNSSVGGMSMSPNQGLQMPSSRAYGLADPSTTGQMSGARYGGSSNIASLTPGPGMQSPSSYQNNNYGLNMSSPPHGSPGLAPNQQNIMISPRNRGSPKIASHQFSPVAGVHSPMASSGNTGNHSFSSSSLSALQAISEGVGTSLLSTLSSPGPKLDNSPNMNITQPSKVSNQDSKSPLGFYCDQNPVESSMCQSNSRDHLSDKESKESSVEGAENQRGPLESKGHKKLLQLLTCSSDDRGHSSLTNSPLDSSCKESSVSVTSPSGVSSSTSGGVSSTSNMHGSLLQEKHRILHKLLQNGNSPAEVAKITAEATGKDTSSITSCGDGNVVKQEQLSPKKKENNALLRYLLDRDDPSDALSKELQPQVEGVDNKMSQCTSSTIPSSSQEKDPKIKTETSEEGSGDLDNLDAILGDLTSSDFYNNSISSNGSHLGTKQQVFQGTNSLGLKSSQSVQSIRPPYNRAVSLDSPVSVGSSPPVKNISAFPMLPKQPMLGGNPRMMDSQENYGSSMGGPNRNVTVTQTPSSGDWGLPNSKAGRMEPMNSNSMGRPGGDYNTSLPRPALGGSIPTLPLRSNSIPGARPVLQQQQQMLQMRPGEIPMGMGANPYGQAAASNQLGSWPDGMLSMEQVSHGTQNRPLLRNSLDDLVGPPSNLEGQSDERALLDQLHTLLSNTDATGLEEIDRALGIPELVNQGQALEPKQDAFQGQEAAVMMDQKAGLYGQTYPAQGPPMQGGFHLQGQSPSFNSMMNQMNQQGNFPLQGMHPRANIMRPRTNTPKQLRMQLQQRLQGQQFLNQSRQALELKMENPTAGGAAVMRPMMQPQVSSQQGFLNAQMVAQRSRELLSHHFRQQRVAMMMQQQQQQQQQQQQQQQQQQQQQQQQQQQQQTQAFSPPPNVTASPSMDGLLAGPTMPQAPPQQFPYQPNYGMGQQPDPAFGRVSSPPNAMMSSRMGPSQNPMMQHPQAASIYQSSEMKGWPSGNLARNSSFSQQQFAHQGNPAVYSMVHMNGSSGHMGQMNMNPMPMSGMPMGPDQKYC

[8] = target: Peroxisome proliferator-activated receptor gamma/Nuclear receptor coactivator 1 (Homo sapiens, UniProt P37231); assay type: functional;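 note: agonist potency as compounds enhance coactivator SRC-1 recruitment to PPARgamma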
[9] = target: T1, Polyadenylate-binding protein 1 (Homo sapiens, UniProt P11940); experiment: MLLE domain peptide-binding blockers, IC50 – biochemical, fluorescence polarization, FITC-PAM2 peptide, dose response (AID 602259); assay type: functional; conditions: read-out: IC50_Mean
[10] = target: T2, Voltage-gated N-type calcium channel alpha-1B subunit/Amyloid beta A4 precursor protein-binding family A member 1 (Homo sapiens, UniProt Q00975+Q02410); assay type: protein assay
T2 sequence (Q00975 whole entry): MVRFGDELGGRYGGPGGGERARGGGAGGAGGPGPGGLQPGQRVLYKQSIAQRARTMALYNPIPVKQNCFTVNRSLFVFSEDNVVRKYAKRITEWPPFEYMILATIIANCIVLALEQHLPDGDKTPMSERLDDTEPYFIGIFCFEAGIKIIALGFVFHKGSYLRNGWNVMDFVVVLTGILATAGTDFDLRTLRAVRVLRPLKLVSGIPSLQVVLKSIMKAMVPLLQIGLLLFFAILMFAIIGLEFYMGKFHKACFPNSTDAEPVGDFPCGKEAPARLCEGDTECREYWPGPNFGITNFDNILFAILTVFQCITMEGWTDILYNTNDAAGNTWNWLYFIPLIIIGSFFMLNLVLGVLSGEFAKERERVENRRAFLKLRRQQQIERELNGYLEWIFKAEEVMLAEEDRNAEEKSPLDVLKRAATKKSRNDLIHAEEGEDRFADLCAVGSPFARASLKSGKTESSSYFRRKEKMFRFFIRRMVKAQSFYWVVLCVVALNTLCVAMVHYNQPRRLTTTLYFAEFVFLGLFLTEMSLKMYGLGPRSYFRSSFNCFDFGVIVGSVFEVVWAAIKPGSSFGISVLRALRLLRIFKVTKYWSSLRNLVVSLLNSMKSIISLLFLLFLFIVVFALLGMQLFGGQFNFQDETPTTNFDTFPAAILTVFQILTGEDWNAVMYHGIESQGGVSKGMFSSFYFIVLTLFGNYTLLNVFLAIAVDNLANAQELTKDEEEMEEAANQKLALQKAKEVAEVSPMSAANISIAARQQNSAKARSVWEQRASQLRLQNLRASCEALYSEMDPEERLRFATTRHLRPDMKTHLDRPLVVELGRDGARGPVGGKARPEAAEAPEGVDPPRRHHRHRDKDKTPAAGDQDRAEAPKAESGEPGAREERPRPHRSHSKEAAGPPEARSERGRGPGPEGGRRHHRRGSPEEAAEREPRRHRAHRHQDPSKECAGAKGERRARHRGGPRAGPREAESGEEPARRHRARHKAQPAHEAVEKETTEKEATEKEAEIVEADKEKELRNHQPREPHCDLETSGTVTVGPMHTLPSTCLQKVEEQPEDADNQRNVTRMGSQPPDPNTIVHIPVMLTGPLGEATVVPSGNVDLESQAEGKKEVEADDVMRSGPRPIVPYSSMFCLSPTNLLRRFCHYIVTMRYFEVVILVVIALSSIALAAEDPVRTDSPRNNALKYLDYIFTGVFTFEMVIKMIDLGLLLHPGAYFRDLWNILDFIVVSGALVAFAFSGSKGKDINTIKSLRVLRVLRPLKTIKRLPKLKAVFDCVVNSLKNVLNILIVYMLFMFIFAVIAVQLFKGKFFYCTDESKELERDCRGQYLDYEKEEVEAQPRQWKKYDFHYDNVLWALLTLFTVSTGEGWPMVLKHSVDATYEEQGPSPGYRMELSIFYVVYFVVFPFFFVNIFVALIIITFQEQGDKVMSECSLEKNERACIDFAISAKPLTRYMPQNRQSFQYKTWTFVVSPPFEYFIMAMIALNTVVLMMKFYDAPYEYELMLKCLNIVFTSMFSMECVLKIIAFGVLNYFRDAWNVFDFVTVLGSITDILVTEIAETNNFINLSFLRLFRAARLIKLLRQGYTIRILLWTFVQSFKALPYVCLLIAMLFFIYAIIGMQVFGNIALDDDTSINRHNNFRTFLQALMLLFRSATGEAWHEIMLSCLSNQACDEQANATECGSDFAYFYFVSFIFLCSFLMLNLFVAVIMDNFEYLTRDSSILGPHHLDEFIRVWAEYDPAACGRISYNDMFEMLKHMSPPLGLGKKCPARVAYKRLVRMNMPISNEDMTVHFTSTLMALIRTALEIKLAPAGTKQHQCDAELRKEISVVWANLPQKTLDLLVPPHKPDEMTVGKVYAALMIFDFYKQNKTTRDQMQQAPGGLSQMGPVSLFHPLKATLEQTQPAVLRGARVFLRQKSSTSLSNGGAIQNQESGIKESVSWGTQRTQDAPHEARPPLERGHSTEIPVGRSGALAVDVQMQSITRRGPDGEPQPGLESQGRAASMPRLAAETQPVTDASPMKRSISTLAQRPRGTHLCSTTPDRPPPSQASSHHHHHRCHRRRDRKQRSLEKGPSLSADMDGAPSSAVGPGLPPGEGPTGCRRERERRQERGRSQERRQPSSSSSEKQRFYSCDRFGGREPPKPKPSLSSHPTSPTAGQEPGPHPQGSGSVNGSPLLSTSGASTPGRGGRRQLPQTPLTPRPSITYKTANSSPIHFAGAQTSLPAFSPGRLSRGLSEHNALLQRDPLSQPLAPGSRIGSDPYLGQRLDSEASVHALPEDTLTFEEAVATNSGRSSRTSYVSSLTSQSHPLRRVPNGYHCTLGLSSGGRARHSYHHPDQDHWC
T2 sequence (Q02410 whole entry): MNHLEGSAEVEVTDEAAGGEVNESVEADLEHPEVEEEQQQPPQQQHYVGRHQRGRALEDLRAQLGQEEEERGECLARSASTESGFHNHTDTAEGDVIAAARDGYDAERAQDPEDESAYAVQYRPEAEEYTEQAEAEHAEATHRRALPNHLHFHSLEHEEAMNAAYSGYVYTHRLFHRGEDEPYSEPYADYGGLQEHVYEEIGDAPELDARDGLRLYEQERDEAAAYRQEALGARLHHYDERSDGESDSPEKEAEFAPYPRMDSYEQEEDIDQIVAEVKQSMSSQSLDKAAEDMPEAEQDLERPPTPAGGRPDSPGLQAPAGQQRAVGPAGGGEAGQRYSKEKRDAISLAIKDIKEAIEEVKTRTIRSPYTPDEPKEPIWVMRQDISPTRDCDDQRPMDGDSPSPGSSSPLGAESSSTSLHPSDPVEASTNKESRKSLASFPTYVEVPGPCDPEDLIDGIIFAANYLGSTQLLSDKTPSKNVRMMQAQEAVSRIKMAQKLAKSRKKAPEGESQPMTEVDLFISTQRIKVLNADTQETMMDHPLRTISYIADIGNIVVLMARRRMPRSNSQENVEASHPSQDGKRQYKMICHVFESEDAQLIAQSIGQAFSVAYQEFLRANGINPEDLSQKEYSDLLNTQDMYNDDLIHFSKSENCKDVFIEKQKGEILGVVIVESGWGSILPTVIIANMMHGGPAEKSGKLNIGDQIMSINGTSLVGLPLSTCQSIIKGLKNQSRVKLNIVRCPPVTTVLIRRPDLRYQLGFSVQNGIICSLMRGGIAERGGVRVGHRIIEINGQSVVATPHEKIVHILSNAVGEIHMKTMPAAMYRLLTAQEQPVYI

[11] = target: T2, Voltage-gated N-type calcium channel alpha-1B subunit/Amyloid beta A4 precursor protein-binding family A member 1; assay type: protein assay; remark: listed apart in the source
[12] = target: T1, Polyadenylate-binding protein 1; experiment: MLLE binding blockers, Cy5 peptide tracer – biochemical, fluorescence polarization, Cy5-PAM2 peptide, secondary, miRNA deadenylation inhibitor project, dose response (AID 602260); assay type: functional; conditions: read-out: IC50_Mean
[13] = target: T3, Ubiquitin-conjugating enzyme E2 N (Homo sapiens, UniProt P61088); assay type: functional;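 note: Dose-response confirmation in a TR-FRET assay detecting UBC13-driven polyubiquitin chain formation, inhibition measured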
T3 sequence (P61088 whole entry): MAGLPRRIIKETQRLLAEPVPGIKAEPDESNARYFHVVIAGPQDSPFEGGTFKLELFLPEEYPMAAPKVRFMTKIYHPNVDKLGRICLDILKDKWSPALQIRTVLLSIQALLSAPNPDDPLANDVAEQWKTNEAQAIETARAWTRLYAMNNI

[14] = target: Glucose-6-phosphate 1-dehydrogenase (Homo sapiens, UniProt P11413); experiment: inhibition of Homo sapiens G6PD, dose series – biochemical, fluorescence, selectivity assay for P. falciparum G6PD inhibitor project, dose response (AID 504792); assay type: functional
[15] = target: DNA dC->dU-editing enzyme APOBEC-3G (Homo sapiens, UniProt Q9HC16); experiment: Dose Response confirmation of small molecule APOBEC3G DNA Deaminase Inhibitors via a fluorescence-based single-stranded DNA deaminase assay. [Related pubchem assays (depositor defined):AID493012, AID493028]; assay type: functional
[16] = target: DNA dC->dU-editing enzyme APOBEC-3A (Homo sapiens, UniProt P31941); experiment: A3A deaminase inhibition for selectivity – biochemical, dose response (AID 504722); assay type: functional
[17] = target: T4, Microphthalmia-associated transcription factor (Homo sapiens, UniProt O75030); experiment: reducers of TRPM1 reporter luminescence, concentration series – cell-based, SK-MEL-5, cherry-picked, set 3, MITF inhibitor project, dose response (AID 493073); assay type: functional;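 note: SK-MEL-5 melanoma cells with luciferase driven by the MITF target TRPM1 promoter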
T4 sequence (O75030 whole entry): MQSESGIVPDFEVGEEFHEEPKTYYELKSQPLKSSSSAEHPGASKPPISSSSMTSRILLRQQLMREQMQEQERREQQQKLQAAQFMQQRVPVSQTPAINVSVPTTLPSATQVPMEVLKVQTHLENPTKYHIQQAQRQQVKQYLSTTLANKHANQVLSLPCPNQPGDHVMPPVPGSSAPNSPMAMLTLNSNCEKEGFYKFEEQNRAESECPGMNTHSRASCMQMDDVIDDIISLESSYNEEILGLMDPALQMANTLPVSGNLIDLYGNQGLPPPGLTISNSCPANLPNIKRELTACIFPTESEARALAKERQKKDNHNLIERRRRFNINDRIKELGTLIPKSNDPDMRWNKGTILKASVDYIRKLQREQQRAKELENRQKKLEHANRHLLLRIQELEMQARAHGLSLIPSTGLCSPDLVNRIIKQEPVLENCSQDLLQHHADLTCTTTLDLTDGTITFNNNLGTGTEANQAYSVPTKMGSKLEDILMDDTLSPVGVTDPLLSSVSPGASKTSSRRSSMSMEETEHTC

[18] = alpha-synuclein stem-loop luciferase translation blockers – H4 neuroglioma cells, luminescence, confirmation (AID 1988); assay type: functional, cell-based
[19] = Luminescence Cell-Based Dose Response HTS to Identify Inhibitors of 5'UTR Stem-Loop Driven Prion Protein mRNA Translation in H4 Neuroglioblastoma Cells. [Related pubchem assays: 1827 (Project Summary), 1813 (Primary HTS)]; assay type: functional
[20] = A549 cell cytotoxicity, dose response, cytotoxicity control, plate reader, cherry-pick, antagonist series (AID 743412); assay type: functional, cell-based
[21] = toxicity toward HepG2 liver cells – cell-based, plate reader, cherry-pick, antagonist series, cytotoxicity control, dose response (AID 743416); assay type: functional
[22] = blockade of melanocortin 4 receptor signaling – cell-based, plate reader, cherry pick, counter-screen for LGR2 antagonist project, dose response (AID 743444); assay type: functional;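 note: transfected HEK 293 cells stimulated with alpha-MSH peptide; potency of inhibitors of the alpha-MSH evoked signal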
[23] = blockers of bursicon-stimulated LGR2 cAMP reporter – cell-based, HEK293, CRE-luciferase reporter, cherry pick, set 2, dose response (AID 743343); assay type: functional;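 note: transfected cells were stimulated with diluted bursicon conditioned medium after compound addition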
[24] = viability loss in HEK293 cells – cell-based, plate reader, cherry-picked samples, cytotoxicity control, dose response (AID 743446); assay type: functional
[25] = luciferase reporter signal suppression in cells – H4 neuroglioma cells, luminescence, dose response (AID 1990); assay type: functional, cell-based
[26] = MIN6 cell viability loss – mouse insulinoma, cytotoxicity control, dose response (AID 2122); assay type: functional;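 note: confirmatory high-throughput counterscreen run to flag cytotoxic compounds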
[27] = Trypanosoma cruzi growth suppression in host cells – NIH3T3 host cells, beta-gal luminescence, confirmation (AID 2044); assay type: functional, cell-based;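 note: intracellular parasites grown in NIH/3T3 mouse fibroblasts as host cells; luminescent beta-galactosidase reporter signal from transgenic T. cruzi replicating inside host cells; inhibitors lower the luminescence signal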
[28] = Luminescence Cell-Based Dose Retest to Confirm Inhibitors of Cancer Stem Cells. [Related pubchem assays (depositor defined):AID2717, AID2721]; assay type: functional; conditions: Homo sapiens
INS1 = experiment: INS-1E survival protection against cytokine death – cell-based, luminescence, retest, dose response (AID 449756); assay type: functional; conditions: Rattus norvegicus;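 note: cell death triggered by IL-1 beta plus TNF-alpha plus IFN-gamma mixture; protective hits raise ATP signal compared with cytokine alone wells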
[29] = NIH3T3 cell viability loss – ATP luminescence, mouse fibroblasts, counter-screen, dose response (AID 2010); assay type: functional, cell-based;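 note: cells exposed to compound for about 90 hours before reading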
[30] = decrease of insulin promoter-GFP reporter – imaging, high-content screening, mouse beta cells (AID 1628); assay type: functional; conditions: MIN6

Structure (SMILES): COc1cccc2cc(-c3csc(NC(=O)CCC(=O)NCCCN4CCC(C)CC4)n3)c(=O)oc12
- EC50 [1]: 11.5 µM (active)
- EC50 (BJ [2]): > 150 µM (not active)
- EC50 (BJ [3]): 13.3 µM (active)
- EC50 (BJ [4]): 12.7 µM (active)

Structure (SMILES): CCN(CC)C(=O)CSc1nc2cc(OC)c(OC)cc2c(=O)n1Cc1ccc(Cl)cc1
- IC50 (Ephrin type-A receptor 4): > 100 µM (not active)

Structure (SMILES): Nc1nc(-c2ccccc2)nn1C(=O)Cc1ccccc1
- IC50 (Prothrombin): 1.51 µM (active)

Structure (SMILES): COc1cc(OC)cc(C(=O)Nc2ccc(NC(=O)c3ccco3)c(C)c2)c1
- EC50 [1]: 9.93 µM (active)
- EC50 (BJ [2]): 19.5 µM (active)
- EC50 (BJ [3]): 10.1 µM (active)
- EC50 (BJ [4]): 15.2 µM (active)

Structure (SMILES): COC(=O)Cc1ccc(NC(S)=NCc2ccc(Cl)cc2)cc1
- EC50 [5]: > 50 µM (active)

Structure (SMILES): CCn1cc(/C=C/C(=O)Nc2ccn(Cc3c(F)c(F)c(F)c(F)c3F)n2)cn1
- EC50 [6]: > 79.4 µM (not active)
- EC50 [7]: > 79.4 µM (not active)
- EC50 [8]: > 79.4 µM (not active)

Structure (SMILES): CCCC1(c2ccccc2)NC(=O)N(CC(=O)Nc2cc(S(=O)(=O)N3CCOCC3)ccc2Cl)C1=O (centres undefined)
- EC50 [5]: > 50 µM (active)

Structure (SMILES): COc1ccc(OC)c(NC(=O)CSc2nnc(N)s2)c1
- EC50 [6]: > 79.4 µM (not active)
- EC50 [7]: > 79.4 µM (not active)
- EC50 [8]: > 79.4 µM (not active)

Structure (SMILES): COc1cccc(-c2ccc(SCc3ccccn3)nn2)c1
- EC50 [5]: > 50 µM (active)

Structure (SMILES): N#CC1=C(N)N=C(S)C(C(N)=O)C1c1ccc([N+](=O)[O-])cc1 (centres undefined)
- IC50 [9]: > 66 µM (inactive)
- IC50 [10]: 5.63 µM (active)
- IC50 [11]: > 50 µM (inactive)
- IC50 [12]: > 66 µM (inactive)

Structure (SMILES): CCCCCCNC(=O)N[C@@H](C(=O)NCCC[C@H]1CN2C(=NC[C@@H]2Cc2ccccc2)N1CCc1cccc(OC)c1)C(C)C
- IC50 [13]: > 20 µM (inactive)

Structure (SMILES): Cc1cc(C)c2c(=O)n(CC(=O)Nc3cccc(F)c3)sc2n1
- IC50 [14]: 22.1 µM (inactive)
- IC50 [15]: 4.35 µM (active)
- IC50 [10]: 8.62 µM (active)
- IC50 [11]: > 50 µM (inactive)
- IC50 [16]: > 100 µM (inactive)

Structure (SMILES): Oc1nc2ccc(Cl)cc2c(-c2ccccc2)c1N1CCOCC1
- IC50 (Prothrombin): > 50 µM (not active)

Structure (SMILES): Cc1ccc2[nH]c(=O)c(C=C3C(=O)NC(=S)NC3=O)cc2c1
- IC50 [10]: 9.32 µM (active)
- IC50 [11]: 42.1 µM (active)

Structure (SMILES): O=c1c2ccccc2cnn1CCOc1ccccc1
- AC50 [17]: 7.2 µM (active)
- EC50 [18]: 1.97 µM (active)
- EC50 [19]: 0.392 µM (active)
- AC50 [20]: 45.5 µM (active)
- AC50 [21]: > 52 µM (inactive)
- AC50 [22]: 2.62 µM (active)
- AC50 [23]: 2.52 µM (active)
- AC50 [24]: 48.8 µM (active)
- EC50 [25]: 4.07 µM (active)

Structure (SMILES): O=C(COC(=O)CCOc1ccccc1)Nc1ccc(Cl)cn1
- IC50 (Prothrombin): 30.8 µM (active)

Structure (SMILES): CC1=N/C(=C\c2ccc([N+](=O)[O-])cc2)C(=O)N1c1cc(Cl)ccc1C
- IC50 (Ephrin type-A receptor 4): 3.45 µM (active)

Structure (SMILES): COc1ccc(-c2[nH]c3ccccc3c2SCCNC(=O)c2ccccc2)cc1
- EC50 [6]: 33.6 µM (not active)
- EC50 [7]: < 79.4 µM (not active)
- EC50 [8]: 39.5 µM (not active)

Structure (SMILES): CCc1ccc2c(c1)cc(CN(C(=S)Nc1ccc(Cl)cc1)C1CC1)c1nnnn12
- EC50 [6]: 8.9 µM (active)
- EC50 [7]: 11.6 µM (not active)
- EC50 [8]: 11.5 µM (not active)

Structure (SMILES): COc1ccc(CC(=O)n2nc(-c3cccnc3)nc2N)cc1
- IC50 (Prothrombin): 0.259 µM (active)

Structure (SMILES): O=C(Nc1ccncc1)Nc1ccc(Cl)cc1
- EC50 [5]: > 50 µM (active)

Structure (SMILES): O=C(CN1CCN(C(=O)CNC(=O)c2ccc(-c3ccccc3)cc2)CC1)Nc1ccccc1Cl
- AC50 [20]: 24.9 µM (active)
- AC50 [21]: 31.7 µM (active)
- AC50 [22]: 48.1 µM (active)
- AC50 [23]: 43.4 µM (active)
- AC50 [24]: 30.1 µM (active)

Structure (SMILES): NS(=O)(=O)c1ccc(N/N=C/c2cn(-c3ccccc3)nc2-c2cccs2)c([N+](=O)[O-])c1
- EC50 [1]: 8.22 µM (active)
- IC50 [26]: 4.7 µM (active)
- EC50 [27]: 0.846 µM (active)
- AC50 [28]: 1.39 µM (active)
- EC50 (BJ [2]): 6.17 µM (inconclusive)
- AC50 (INS1): 4.07 µM (active)
- EC50 [29]: 12.4 µM (active)
- IC50 [30]: 1.43 µM (active)
- EC50 (BJ [3]): 19.4 µM (active)
- EC50 (BJ [4]): 4.24 µM (active)

Structure (SMILES): Cc1nc(N)sc1C(=O)N/N=C/c1ccco1
- IC50 [13]: > 20 µM (inactive)

Structure (SMILES): CCOc1ccc(C(=O)Nc2ccc(-c3nc4ccccc4[nH]3)cc2)cc1[N+](=O)[O-]
- IC50 [10]: 12.2 µM (active)
- IC50 [11]: > 50 µM (inactive)
